The results in this text go back to patent US6919441B2, “Polyamide-oligonucleotide derivatives, their preparation and use” (Aventis Pharma Deutschland GmbH, priority 1995, dated 2005).

One test has as its system N-ras RNA. Kind of test: RNase H mediated cleavage of N-ras RNA, cell-free system. The format is biochemical. Particulars: RNase H from E. coli. The method, then:
The ability to cleave N-ras RNA specifically by PNA-DNA chimera directed against N-ras which can induce RNase H was tested in a cell-free system. First, radioactively labelled N-ras RNA was prepared by in vitro transcription.
The plasmid pMS5-NRAS, which is a derivative of pBluescript II KS (±/−) containing the mutant N-ras sequence (codon 13 GGT→CGT) cloned into XbaI/EcoRI sites, was linearized with EcoR1. After phenol extraction and ethanol precipitation the linear DNA was used as template for in vitro transcription. For transcription, the DNA (5 μg) was incubated in a 100 μl mixture containing 10 mM DTT, 40 mM Tris-HCl pH 7.5, 50 mM NaCl, 8 mM MgCl2, 2 mM spermidine, 500 μM of each rNTP, 80 u RNase-inhibitor, 40 μCi [α-^32P]-(ATP) and 250 u T7 RNA polymerase. After incubation for 1 h at 37° C., the DNA was digested by addition of 25 u DNaseI and further incubation for 30 min at 37° C. After extraction with phenol and chloroform, the aqueous phase was transferred into a Centricon tube and centrifuged at 3410 rpm for 30 min. The RNA was analyzed by PAGE (6% PAA, 8 M urea). For the RNase H cleavage the radioactively labelled N-ras RNA (approximately 0.05 nmol; aqueous solution from above) was hybridized with the PNA-DNA chimera speific for N-ras mRNA (6.5 nmol) by heating to 80° C. and cooling to room temperature. […] The cleavage reactions were analyzed by PAGE (6% PAA, 8 M urea) gel.

The subject of a further test is TNF-α. The test can be described thus: Inhibition of TNF-α expression in THP-1 cells (ELISA). The format is cell-based, human. As to conditions: 0.1-0,5 μM, Cellfectin, PMA/IFNγ stimulation. The procedure: Cell Culture. The human monocytic cell line, THP-1 was grown in RPMI 1640 supplemented with L-glutamine (GIBCO BRL, Life Technologies, Inc.), 10% heat inactivated fetal bovine serum (GIBCO BRL) and penicillin (100 U/ml)/streptomycin (100 μg/ml). The NIH3T3 permanently producing human TNFα was maintained in 10% DMEM.
Enzyme Linked Immunosorbent Assays (ELISA) for TNFα. The TNFα level was quantified using ELISA kit (Cat. #DTA50) obtained from R&D Systems (Minneapolis, Minn.).
Assay Methods. THP-1 cells (3×10^6) were seeded in 48-well plates in 0.2 ml of Opti-MEM (GIBCO) medium. In a 96-well plate, varying concentrations of PNA-DNA chimera (20 μl) were each added to 20 μl of Cellfectin in Opti-MEM (2.4 μl of 1 mg/ml Cellfectin added to 17.6 μl Opti-MEM) and incubated for 15 min at room temperature. The mixture was then added to the cells dropwise. The final concentration of the Cellfectin was 10 μg/ml in 0.24 ml of Opti-MEM. After 4 hours at 37° C., 0.48 ml of 15% RPMI medium was added to each well (This dilution step was added to inactivate the Cellfectin). The final concentration of cells was ˜1×10^6 calls/ml in 10% RPMI. The cells were then stimulated with a combination of 100 ng/ml of PMA and 300 U/ml of IFNγ. […] The supernatants were analyzed for TNFα.

Take “5′-CCAACA-(Oeg(c))-cgacctgct-hex [Example 57]”: in the test on N-ras RNA, the “induction of RNase H mediated cleavage of N-ras RNA” value is on record as “able to induce RNase H mediated cleavage”. As to “5′-USCSASGGSUG-(Oeg(t))-cctttgcag-hex [Example 56]”, in the test with TNF-α, the “inhibition of TNF-α expression relative to untreated controls” value is 25-35%.
